Where two headings read alike, the source gives them in different places.
Tests used:
α7^Q79G-5HT3 = target: T1, α7^Q79G-5HT3 (Homo sapiens, UniProt P36544, M226I/Q79G/T225I); assay: Agonist potency (EC50), HEK cells expressing chimeric channel; format: cell-based, human α7 nAChR LBD, murine 5HT3 IPD; details: read-out: Mean EC50, α7^Q79G-5HT3
T1 construct: expressed in transfected cells; host or cells: HEK cells

α7-GlyR = target: T2, α7-GlyR (Homo sapiens, UniProt P36544); assay: as above; format: cell-based
T2 construct: expressed in transfected cells; host or cells: HEK cells

α7-GlyR^A298G = target: T3, α7-GlyR^A298G (Homo sapiens, UniProt P36544, A298G); assay: as above; format: cell-based
T3 construct: expressed in transfected cells; host or cells: HEK cells

α7^W77F,G175K-GlyR = target: T4, α7^W77F,G175K-GlyR (Homo sapiens, UniProt P36544, G175K/W77F); assay: Agonist potency at chimeric channel; format: cell-based
T4 construct: expressed in transfected cells

[1] = target: T5, α7GlyR Q79G Y115F G175K K322L (Homo sapiens, UniProt P36544, G175K/Q79G/Y115F); assay: Agonist potency at chimeric channel; format: cell-based
T5 construct: expressed in transfected cells

α7^Q79S,L131G,Q139L-GlyR = target: T6, α7^Q79S,L131G,Q139L-GlyR (Homo sapiens, UniProt P36544, L131G/Q139L/Q79S); assay: cell-based; format: cell-based
T6 construct: expressed in transfected cells

α7^L131F-GlyR = target: T7, α7^L131F-GlyR (Homo sapiens, UniProt P36544, L131F); assay: Agonist potency at chimeric channel (Table 9); format: cell-based
T7 construct: expressed in transfected cells

α7^L131G-GABAc = target: T8, α7^L131G-GABAc (Homo sapiens, UniProt P36544, L131G); assay: Agonist potency at chimeric channel (Table 9); format: cell-based
T8 construct: expressed in transfected cells

α7GABAc (GABAA-ρ) W298A = target: T9, α7GABAc (GABAA-ρ) W298A (Homo sapiens, UniProt P36544, L141F/Q79G); assay: Agonist potency at chimeric channel (Table 7); format: cell-based
T9 construct: expressed in transfected cells

α7GlyR Q79G L131G = target: T10, α7GlyR Q79G L131G (Homo sapiens, UniProt P36544, L131G/Q79G); assay: Agonist potency at chimeric channel (Table 9); format: cell-based
T10 construct: expressed in transfected cells

α7^Q79A-GlyR = target: T11, α7^Q79A-GlyR (Homo sapiens, UniProt P36544, Q79A); assay: Agonist potency (EC50), HEK cells expressing chimeric channel; format: cell-based
T11 construct: expressed in transfected cells; host or cells: HEK cells

α7^Q79G-GlyR^A298G = target: T12, α7^Q79G-GlyR^A298G (Homo sapiens, UniProt P36544, A298G/Q79G); assay: as above; format: cell-based
T12 construct: expressed in transfected cells; host or cells: HEK cells

α7^Q79G,Y115F-5HT3 = target: T13, α7^Q79G,Y115F-5HT3 (Homo sapiens, UniProt P36544, M226I/Q79G/T225I/Y115F); assay: as above; format: cell-based, human α7 nAChR LBD, murine 5HT3 IPD; details: Table 4
T13 construct: expressed in transfected cells; host or cells: HEK cells

α7^Q79G,Q139G-5HT3 = target: T14, α7^Q79G,Q139G-5HT3 (Homo sapiens, UniProt P36544, M226I/Q139G/Q79G/T225I); assay: as above; format: cell-based, human α7 nAChR LBD, murine 5HT3 IPD; details: Table 4
T14 construct: expressed in transfected cells; host or cells: HEK cells

α7^Q79G,Y115F-GlyR^A298G = target: T15, α7^Q79G,Y115F-GlyR^A298G (Homo sapiens, UniProt P36544, A298G/Q79G/Y115F); assay: as above; format: cell-based; details: Table 4
T15 construct: expressed in transfected cells; host or cells: HEK cells

[2] = target: T16, α7^R27D,E41R,Q79G,Y115F-GlyR^A298G (Homo sapiens, UniProt P36544, A298G/E41R/Q79G/R27D/Y115F); assay: as above; format: cell-based; details: Table 4, read-out: Mean EC50, α7^R27D,E41R,Q79G,115F-GlyR^A298G
T16 construct: expressed in transfected cells; host or cells: HEK cells

α7^P216I-GlyR = target: T17, α7^P216I-GlyR (Homo sapiens, UniProt P36544, P216I); assay: Agonist potency at chimeric channel; format: cell-based
T17 construct: expressed in transfected cells

[3] = target: T18, α7GlyR Q79G G175K Y115F R27D E41R (Homo sapiens, UniProt P36544, E41R/G175K/Q79G/R27D/Y115F); assay: Agonist potency at chimeric channel; format: cell-based
T18 construct: expressed in transfected cells

[4] = target: T19, α7^L131G,Q139L,Y217F-GlyR (Homo sapiens, UniProt P36544, L131G/Q139L/Y217F); assay: cell-based; format: cell-based
T19 construct: expressed in transfected cells

[5] = target: T20, α7^L131G,Q139L,Y217F-5HT3 HC (Homo sapiens, UniProt P36544, L131G/M226I/Q139L/T225I/Y217F); assay: Agonist potency at chimeric channel (Table 9); format: cell-based; details: α75HT3 L131G Q139L Y217F HC
T20 construct: expressed in transfected cells

α7^R27D,E41R-5HT3 = target: T21, α7^R27D,E41R-5HT3 (Homo sapiens, UniProt P36544, E41R/M226I/R27D/T225I); assay: Whole cell recordings in HEK cells; format: cell-based, human α7 nAChR LBD, murine 5HT3 IPD; details: V5 epitope tag
T21 construct: expressed in transfected cells; host or cells: HEK cells

[6] = target: T22, α7GlyR Q79S L131G Q139L Y217F (Homo sapiens, UniProt P36544, L131G/Q139L/Q79S/Y217F); assay: cell-based
T22 construct: expressed in transfected cells

[7] = read-out: Agonist potency, a7GlyR

T2 sequence (P36544 with tags, fused parts or gaps): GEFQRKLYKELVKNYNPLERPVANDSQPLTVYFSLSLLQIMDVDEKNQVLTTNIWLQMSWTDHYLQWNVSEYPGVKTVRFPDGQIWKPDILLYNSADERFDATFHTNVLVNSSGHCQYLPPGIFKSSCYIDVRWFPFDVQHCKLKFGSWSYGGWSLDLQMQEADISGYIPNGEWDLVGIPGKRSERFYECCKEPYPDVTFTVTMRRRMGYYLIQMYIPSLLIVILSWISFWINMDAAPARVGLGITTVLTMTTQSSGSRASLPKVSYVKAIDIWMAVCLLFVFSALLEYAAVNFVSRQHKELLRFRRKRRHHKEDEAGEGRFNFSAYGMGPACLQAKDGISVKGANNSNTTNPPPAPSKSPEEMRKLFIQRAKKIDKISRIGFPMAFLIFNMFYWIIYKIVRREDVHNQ
T12 sequence (P36544 with tags, fused parts or gaps Q79G): as the sequence (P36544 with tags, fused parts or gaps) above, with Q57G, A276G counted along it
T18 sequence (P36544 with tags, fused parts or gaps R27D/E41R/Q79G/Y115F/G175K): as the sequence (P36544 with tags, fused parts or gaps) above, with R5D, E19R, Q57G, Y93F, G153K counted along it
T1 sequence (P36544 with tags, fused parts or gaps Q79G/T225I/M226I): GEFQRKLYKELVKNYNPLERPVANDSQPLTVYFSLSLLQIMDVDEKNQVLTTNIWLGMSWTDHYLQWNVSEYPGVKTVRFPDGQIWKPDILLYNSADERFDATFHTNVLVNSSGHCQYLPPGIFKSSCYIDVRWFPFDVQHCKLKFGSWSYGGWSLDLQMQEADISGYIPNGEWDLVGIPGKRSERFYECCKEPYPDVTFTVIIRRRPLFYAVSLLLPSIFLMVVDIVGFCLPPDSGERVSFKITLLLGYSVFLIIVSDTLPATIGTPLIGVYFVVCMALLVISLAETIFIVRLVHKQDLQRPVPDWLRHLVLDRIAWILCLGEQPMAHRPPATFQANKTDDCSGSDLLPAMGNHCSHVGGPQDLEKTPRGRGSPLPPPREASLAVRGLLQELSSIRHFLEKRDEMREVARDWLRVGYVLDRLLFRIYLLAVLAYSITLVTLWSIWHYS
T5 sequence (P36544 with tags, fused parts or gaps Q79G/Y115F/G175K): as the sequence (P36544 with tags, fused parts or gaps) above, with Q57G, Y93F, G153K, K300L counted along it
T19 sequence (P36544 with tags, fused parts or gaps L131G/Q139L/Y217F): as the sequence (P36544 with tags, fused parts or gaps) above, with L109G, Q117L, Y195F counted along it
T6 sequence (P36544 with tags, fused parts or gaps Q79S/L131G/Q139L): as the sequence (P36544 with tags, fused parts or gaps) above, with Q57S, L109G, Q117L counted along it
T22 sequence (P36544 with tags, fused parts or gaps Q79S/L131G/Q139L/Y217F): as the sequence (P36544 with tags, fused parts or gaps) above, with Q57S, L109G, Q117L, Y195F counted along it
T10 sequence (P36544 with tags, fused parts or gaps Q79G/L131G): as the sequence (P36544 with tags, fused parts or gaps) above, with Q57G, L109G counted along it
T7 sequence (P36544 with tags, fused parts or gaps L131F): as the sequence (P36544 with tags, fused parts or gaps) above, with L109F counted along it
T17 sequence (P36544 with tags, fused parts or gaps P216I): as the sequence (P36544 with tags, fused parts or gaps) above, with P194I counted along it
T4 sequence (P36544 with tags, fused parts or gaps W77F/G175K): as the sequence (P36544 with tags, fused parts or gaps) above, with W55F, G153K counted along it
T9 sequence (P36544 with tags, fused parts or gaps Q79G/L141F): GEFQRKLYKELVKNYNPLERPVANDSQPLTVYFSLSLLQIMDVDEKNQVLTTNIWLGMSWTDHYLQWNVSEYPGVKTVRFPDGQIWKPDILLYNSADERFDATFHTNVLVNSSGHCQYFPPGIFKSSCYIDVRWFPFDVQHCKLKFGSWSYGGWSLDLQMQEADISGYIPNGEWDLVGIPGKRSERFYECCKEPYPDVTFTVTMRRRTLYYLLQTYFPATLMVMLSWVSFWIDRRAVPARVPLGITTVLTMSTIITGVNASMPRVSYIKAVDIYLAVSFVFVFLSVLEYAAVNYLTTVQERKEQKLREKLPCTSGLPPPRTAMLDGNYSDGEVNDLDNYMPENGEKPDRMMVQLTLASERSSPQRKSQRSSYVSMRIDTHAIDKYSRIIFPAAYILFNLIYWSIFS
T3 sequence (P36544 with tags, fused parts or gaps, stated change not applied): as the sequence (P36544 with tags, fused parts or gaps) above, with A276G counted along it
T11 sequence (P36544 with tags, fused parts or gaps Q79A): as the sequence (P36544 with tags, fused parts or gaps) above, with Q57A counted along it
T13 sequence (P36544 with tags, fused parts or gaps Q79G/Y115F/T225I/M226I): as the sequence (P36544 with tags, fused parts or gaps Q79G/T225I/M226I) above, with Y93F counted along it
T15 sequence (P36544 with tags, fused parts or gaps Q79G/Y115F): as the sequence (P36544 with tags, fused parts or gaps) above, with Q57G, Y93F, A276G counted along it
T8 sequence (P36544 with tags, fused parts or gaps L131G): as the sequence (P36544 with tags, fused parts or gaps Q79G/L141F) above, with G57Q, L109G, F119L, A276W counted along it
T14 sequence (P36544 with tags, fused parts or gaps Q79G/Q139G/T225I/M226I): as the sequence (P36544 with tags, fused parts or gaps Q79G/T225I/M226I) above, with Q117G counted along it
T21 sequence (P36544 with tags, fused parts or gaps R27D/E41R/T225I/M226I limits assumed): as the sequence (P36544 with tags, fused parts or gaps Q79G/T225I/M226I) above, with R5D, E19R, G57Q counted along it
T20 sequence (P36544 with tags, fused parts or gaps L131G/Q139L/Y217F/T225I/M226I limits assumed): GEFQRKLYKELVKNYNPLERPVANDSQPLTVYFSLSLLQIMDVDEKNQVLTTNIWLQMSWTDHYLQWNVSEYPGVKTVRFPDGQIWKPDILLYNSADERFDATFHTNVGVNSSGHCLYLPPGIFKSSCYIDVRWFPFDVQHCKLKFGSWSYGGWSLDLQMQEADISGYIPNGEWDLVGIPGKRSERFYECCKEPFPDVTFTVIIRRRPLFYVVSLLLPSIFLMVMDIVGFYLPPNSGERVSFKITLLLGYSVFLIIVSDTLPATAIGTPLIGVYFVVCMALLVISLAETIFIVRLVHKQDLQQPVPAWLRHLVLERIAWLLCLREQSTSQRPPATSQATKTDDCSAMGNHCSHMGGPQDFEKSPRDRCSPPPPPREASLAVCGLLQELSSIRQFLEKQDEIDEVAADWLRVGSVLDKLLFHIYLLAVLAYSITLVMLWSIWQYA
T16 sequence (P36544 with tags, fused parts or gaps R27D/E41R/Q79G/Y115F): as the sequence (P36544 with tags, fused parts or gaps) above, with R5D, E19R, Q57G, Y93F, A276G counted along it

Row | SMILES | EC50 (α7-GlyR) [nM] | EC50 (α7-GlyR; read-out: Agonist potency) [nM] | EC50 (α7-GlyR; [7]) [nM] | EC50 (α7-GlyR^A298G) [nM] | EC50 (α7^W77F,G175K-GlyR) [nM] | EC50 [1] [nM] | EC50 (α7^Q79S,L131G,Q139L-GlyR) [nM] | EC50 (α7^L131F-GlyR) [nM] | EC50 (α7GABAc (GABAA-ρ) W298A) [nM] | EC50 (α7GlyR Q79G L131G) [nM] | EC50 (α7^Q79A-GlyR) [nM] | EC50 (α7^Q79G-GlyR^A298G) [nM] | EC50 (α7^P216I-GlyR) [nM] | EC50 [3] [nM] | EC50 [4] [nM] | EC50 [6] [nM] | also measured
1 | O=c1cccc2n1C[C@@H]1CNC[C@H]2C1 [Cytisine] | 6400 | 6400 | 6400 | 2100 | 1500 | > 30000 | 10000 | 10500 | 13300 | > 30000 |  |  |  |  |  |  | EC50 (α7^Q79G-5HT3): 1700 nM; EC50 (α7^L131G-GABAc): > 500000 nM
2 | O=C(NC1CN2CCC1CC2)c1ccc(Cl)cc1 (stereo not shown) [PNU-282987] | 130 | 130 | 130 | 35 |  |  |  | 200 |  | 96 | 22 | 7 | 40 | 50 | 160 | 50 | EC50 (α7-GlyR; read-out: α7-GlyR EC50): 130 nM; EC50 (α7^Q79G-GlyR^A298G; read-out: α7^Q79G-GlyR^A298G EC50): 7 nM; EC50 (α7^Q79G,Y115F-5HT3): 350 nM; EC50 (α7^Q79G,Q139G-5HT3): 160 nM; EC50 (α7^Q79G,Y115F-GlyR^A298G): 220 nM; EC50 [2]: 66 nM; EC50 [5]: 15 nM; whole cell response (α7^R27D,E41R-5HT3): potent responses
3 | Clc1ccc(C2CC3CCC2N3)cn1 (stereo not shown) [Epibatidine] |  |  |  |  | 40 | 270 | 12 |  | 420 |  | 38 | 32 | 30 | 59 | 21 | 22 | EC50 (α7^Q79G-5HT3; HEK cells, Table 1): 50 nM
